According to paper PMC12463120, “Phenylalanine‐Based DNA‐Encoded Chemical Libraries for the Discovery of Potent and Selective Small Organic Ligands Against Markers of Cancer and Immune Cells” (Advanced Science, 2025):

Experiments:
GCP3 = molecular target: T1, GCP3 (Homo sapiens, UniProt Q9Y3Q0); assay: Fluorescence polarization (FP) affinity against GCP3; type: binding; details: fluoresceinated compounds
T1 construct: Avi-tag; made in house; host or cells: CHO cells
Procedure: Hits obtained from FM‐DEL1 (A1452 and A3113) and FM‐DEL2 (A3113/B423) were re‐synthesized as stereo‐chemically pure off‐DNA compounds derivatized with a C6 linker featuring a fluorescein moiety (coupled to fluorescein isothiocyanate‐FITC) (compounds 1–6) [Figure 2E]. The binding affinity against PSMA and GCP3 (KD) of fluoresceinated compounds 1–6 was measured by fluorescence polarization (FP). […] The superiority of compound 5 (S‐configuration) in binding PSMA over compound 6 (R‐configuration) was confirmed by molecular docking studies [Figure S48, Supporting Information]. […] The presence of the sole building block A3113 on the 3‐iodo‐phenylalanine scaffold in the S‐configuration gives adequate selectivity for PSMA over GCP3. […]
(§1) Selection results were decoded with C++^[ [61] ^] and visualized using MATLAB R2019b (MathWorks). EFs were calculated by dividing the DNA sequence counts for each hit compound by the average DNA sequence count from the corresponding DEL screening. Additionally, Z‐score values were calculated following methods previously published,^[ [60] ^] as present in Supporting Information. […] Affinities of fluorescein‐bearing hits were determined by FP or ELISA measurements. […] Binding kinetics were assessed on a Biacore X100 instrument with the target protein immobilized on a CM5 chip at 4′000 RUs. […]
(§2) 2.11 Fluorescence polarization (FP) measurements with fluoresceine-labelled […]

recombinant human ACP3 = molecular target: T2, recombinant human ACP3 (Homo sapiens, UniProt P15309); assay: Fluorescence polarization (FP) affinity against human ACP3; type: binding; details: PSMA ligands as negative controls
T2 construct: made in house; host or cells: CHO cells
T2 sequence (P15309 33-386): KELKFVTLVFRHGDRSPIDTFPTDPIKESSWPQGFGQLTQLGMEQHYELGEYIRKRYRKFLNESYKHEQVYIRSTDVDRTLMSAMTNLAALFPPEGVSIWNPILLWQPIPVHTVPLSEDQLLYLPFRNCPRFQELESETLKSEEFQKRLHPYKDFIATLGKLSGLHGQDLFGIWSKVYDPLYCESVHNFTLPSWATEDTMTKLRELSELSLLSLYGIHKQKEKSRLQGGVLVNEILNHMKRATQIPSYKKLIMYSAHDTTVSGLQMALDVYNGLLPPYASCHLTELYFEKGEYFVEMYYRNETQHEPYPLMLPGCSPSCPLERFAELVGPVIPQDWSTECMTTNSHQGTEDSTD
Procedure: Selection results were decoded with C++^[ [61] ^] and visualized using MATLAB R2019b (MathWorks). EFs were calculated by dividing the DNA sequence counts for each hit compound by the average DNA sequence count from the corresponding DEL screening. Additionally, Z‐score values were calculated following methods previously published,^[ [60] ^] as present in Supporting Information. Hit compounds with high EFs in the target protein selections and low EFs in the negative controls (anti‐target and streptavidin selections) were selected for hit validation activities. All compounds were synthesized using either solid‐phase peptide synthesis or solution‐phase methodologies. Affinities of fluorescein‐bearing hits were determined by FP or ELISA measurements. […] ACP3 colorimetric inhibition assay was performed with serially diluted compounds at a fixed concentration (5 mM in PBS) of para‐nitrophenyl phosphate as substrate. Binding kinetics were assessed on a Biacore X100 instrument with the target protein immobilized on a CM5 chip at 4′000 RUs. Cell binding of fluorescent ligands was evaluated using flow cytometry against antigen‐positive and antigen‐negative (wild‐type) cancer cells. in vitro tissue uptake of ^177Lu‐labelled DOTAGA PSMA‐radioligands was measured via autoradiography. Prism 9 software (GraphPad Software) was used for data analysis of FP, ELISA, PD‐10, SPR, and enzymatic assay measurements. […]
(§3) The protein was then concentrated using Vivaspin® 20 centrifugal concentrators (30’000 Da molecular weight cutoff, Sartorius, #VS2012) and then purified by SEC or PD-10 column. The fractions were measured (absorption at 280 nm) on a Nanodrop 2000 Spectrophotometer to combine protein-containing fractions. […]
(§4) Protein dissolved in PBS or HEPES buffer was incubated for 30-60 min with 5 equiv. of EZ-LinkTM NHS-LC-Biotin (Thermo Fisher Scientific, #21336). […] The fractions were measured (absorption at 280 nm) on a Nanodrop 2000 Spectrophotometer to combine protein-containing fractions. […]
as §2

PSMA [1] = molecular target: T3, PSMA (Homo sapiens, UniProt Q04609); assay: Fluorescence polarization (FP) affinity against PSMA; type: binding; details: fluoresceinated compounds
T3 construct: Avi-tag; made in house; host or cells: CHO cells
T3 sequence (Q04609 whole entry): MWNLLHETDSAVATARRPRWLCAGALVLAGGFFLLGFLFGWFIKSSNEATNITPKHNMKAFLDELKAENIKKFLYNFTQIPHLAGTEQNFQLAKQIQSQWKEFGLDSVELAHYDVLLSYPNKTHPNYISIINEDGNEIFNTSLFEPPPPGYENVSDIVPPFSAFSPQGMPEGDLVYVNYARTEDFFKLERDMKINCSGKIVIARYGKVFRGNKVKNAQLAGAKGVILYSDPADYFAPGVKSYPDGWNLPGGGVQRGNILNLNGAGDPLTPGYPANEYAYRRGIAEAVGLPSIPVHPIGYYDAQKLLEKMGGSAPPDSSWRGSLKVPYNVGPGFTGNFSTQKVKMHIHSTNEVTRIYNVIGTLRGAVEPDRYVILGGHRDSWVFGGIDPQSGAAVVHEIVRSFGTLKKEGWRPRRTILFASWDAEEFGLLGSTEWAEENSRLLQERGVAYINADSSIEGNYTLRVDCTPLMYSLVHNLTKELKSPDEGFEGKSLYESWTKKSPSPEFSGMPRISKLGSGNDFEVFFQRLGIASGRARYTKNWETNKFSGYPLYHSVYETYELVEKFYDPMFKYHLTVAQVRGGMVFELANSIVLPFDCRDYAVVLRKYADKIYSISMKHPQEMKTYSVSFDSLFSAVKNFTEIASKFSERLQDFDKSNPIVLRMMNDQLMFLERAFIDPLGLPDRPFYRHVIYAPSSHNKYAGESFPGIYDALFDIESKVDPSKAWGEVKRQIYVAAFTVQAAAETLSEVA
Procedure: Hits obtained from FM‐DEL1 (A1452 and A3113) and FM‐DEL2 (A3113/B423) were re‐synthesized as stereo‐chemically pure off‐DNA compounds derivatized with a C6 linker featuring a fluorescein moiety (coupled to fluorescein isothiocyanate‐FITC) (compounds 1–6) [Figure 2E]. The binding affinity against PSMA and GCP3 (KD) of fluoresceinated compounds 1–6 was measured by fluorescence polarization (FP). […] The superiority of compound 5 (S‐configuration) in binding PSMA over compound 6 (R‐configuration) was confirmed by molecular docking studies [Figure S48, Supporting Information]. […] The presence of the sole building block A3113 on the 3‐iodo‐phenylalanine scaffold in the S‐configuration gives adequate selectivity for PSMA over GCP3. The addition of the second building block (B423) enhances both affinity and selectivity for the target.
as §1, with “RUs. Cell binding of fluorescent ligands was evaluated using flow cytometry against antigen‐positive and antigen‐negative (wild‐type) cancer cells. in vitro tissue uptake of ^177Lu‐labelled DOTAGA PSMA‐radioligands was measured via autoradiography.” for “RUs.”
as §3, §2

[2] = test system: HT-1080.hPSMA tumor cells; assay: Flow cytometry on HT-1080.hPSMA cells; type: cell-based; details: 250 nM
Procedure: Selection results were decoded with C++^[ [61] ^] and visualized using MATLAB R2019b (MathWorks). EFs were calculated by dividing the DNA sequence counts for each hit compound by the average DNA sequence count from the corresponding DEL screening. Additionally, Z‐score values were calculated following methods previously published,^[ [60] ^] as present in Supporting Information. Hit compounds with high EFs in the target protein selections and low EFs in the negative controls (anti‐target and streptavidin selections) were selected for hit validation activities. All compounds were synthesized using either solid‐phase peptide synthesis or solution‐phase methodologies. Affinities of fluorescein‐bearing hits were determined by FP or ELISA measurements. […] ACP3 colorimetric inhibition assay was performed with serially diluted compounds at a fixed concentration (5 mM in PBS) of para‐nitrophenyl phosphate as substrate. Binding kinetics were assessed on a Biacore X100 instrument with the target protein immobilized on a CM5 chip at 4′000 RUs. Cell binding of fluorescent ligands was evaluated using flow cytometry against antigen‐positive and antigen‐negative (wild‐type) cancer cells. in vitro tissue uptake of ^177Lu‐labelled DOTAGA PSMA‐radioligands was measured via autoradiography. Prism 9 software (GraphPad Software) was used for data analysis of FP, ELISA, PD‐10, SPR, and enzymatic assay measurements. SPR sensograms were fitted with the Biacore X100 Evaluation Software. Flow cytometry data was processed with the FlowJo 10.4 software.
HT1080.hPSMA and PC3.hACP3 cell lines were generated by lentiviral transduction on wild type cells (HT1080.wt and PC3.wt), according to published procedures9. […]
Cancer cells were detached with an Accutase® cell detachment solution, resuspended in a standard culture medium, and transferred to falcon tubes. Cells were counted and centrifuged at 400 rcf for 3 min. […] Data were acquired halting the measurement at 10´ 000 events on a Cytoflex S flow cytometer (Beckman Coulter), and analyzed using the FlowJo software v10 (BD Biosciences). […]

PSMA [3] = molecular target: T3, PSMA; assay: Size-exclusion chromatography co-elution with PSMA; type: binding; details: recombinant PSMA vs GCP3
Procedure: (§5) Selection results were decoded with C++^[ [61] ^] and visualized using MATLAB R2019b (MathWorks). EFs were calculated by dividing the DNA sequence counts for each hit compound by the average DNA sequence count from the corresponding DEL screening. Additionally, Z‐score values were calculated following methods previously published,^[ [60] ^] as present in Supporting Information. Hit compounds with high EFs in the target protein selections and low EFs in the negative controls (anti‐target and streptavidin selections) were selected for hit validation activities. All compounds were synthesized using either solid‐phase peptide synthesis or solution‐phase methodologies. Affinities of fluorescein‐bearing hits were determined by FP or ELISA measurements. […] Binding kinetics were assessed on a Biacore X100 instrument with the target protein immobilized on a CM5 chip at 4′000 RUs. Cell binding of fluorescent ligands was evaluated using flow cytometry against antigen‐positive and antigen‐negative (wild‐type) cancer cells. in vitro tissue uptake of ^177Lu‐labelled DOTAGA PSMA‐radioligands was measured via autoradiography. […]
as §4

murine CAIX (mCAIX) = murine CAIX (mCAIX) (Mus musculus, UniProt Q8VHB5); assay: Fluorescence polarization (FP) affinity against mCAIX; type: binding
Chain of murine CAIX (mCAIX) (Q8VHB5 32-437): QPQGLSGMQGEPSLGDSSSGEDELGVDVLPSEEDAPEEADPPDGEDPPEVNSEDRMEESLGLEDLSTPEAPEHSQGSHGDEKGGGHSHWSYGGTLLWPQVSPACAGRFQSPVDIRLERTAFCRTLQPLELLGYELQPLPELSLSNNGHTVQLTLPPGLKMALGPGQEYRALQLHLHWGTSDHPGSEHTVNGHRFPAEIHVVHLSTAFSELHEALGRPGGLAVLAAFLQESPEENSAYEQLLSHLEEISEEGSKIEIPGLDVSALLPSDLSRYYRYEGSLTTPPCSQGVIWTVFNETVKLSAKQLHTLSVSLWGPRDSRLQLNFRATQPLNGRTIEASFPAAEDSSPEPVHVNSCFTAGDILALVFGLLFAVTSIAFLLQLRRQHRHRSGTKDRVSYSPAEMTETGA
Procedure: as §5, §4

human CAIX (hCAIX) = molecular target: T4, human CAIX (hCAIX) (Homo sapiens, UniProt Q16790); assay: Fluorescence polarization (FP) affinity against hCAIX; type: binding; details: fluorescein derivatives
T4 construct: made in house; host or cells: CHO cells
Procedure: A dilution series of target proteins (i.e., PSMA, GCP3, CAIX, CAII) in the respective formulation buffer were separately prepared in a black 384-well plate (non-binding Greiner small volume plate). Test compounds functionalized with fluorescein were diluted to a concentration between 5 and 10 nM (5 μL) and incubated for 15 min with the protein (final volume corresponding to 10 µL). The fluorophore was excited at 485 nm, and anisotropy was measured at 535 nm on a Spectra Max Paradigm multimode plate reader (Tecan). The experiments were performed in triplicate. KD values measured using this FP method can differ from dissociation constants obtained by other physical methods (e.g., surface plasmon resonance, see section below).

[4] = test system: SK-RC-52 renal cell carcinoma cells; assay: Flow cytometry on SK-RC-52 cells; type: cell-based; details: 100 nM
bovine CAII (bCAII) = bovine CAII (bCAII) (Bos taurus, UniProt P00921); assay: Fluorescence polarization (FP) affinity against bCAII; type: binding
Chain of bovine CAII (bCAII) (P00921 whole entry): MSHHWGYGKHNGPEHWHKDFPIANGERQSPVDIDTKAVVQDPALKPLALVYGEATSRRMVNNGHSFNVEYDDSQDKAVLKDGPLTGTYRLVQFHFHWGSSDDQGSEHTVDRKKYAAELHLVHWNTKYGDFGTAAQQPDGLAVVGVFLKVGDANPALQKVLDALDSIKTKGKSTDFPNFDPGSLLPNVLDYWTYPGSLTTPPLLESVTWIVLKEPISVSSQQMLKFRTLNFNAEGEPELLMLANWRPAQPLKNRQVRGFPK
Procedure: as §5, §4

T1 sequence (Q9Y3Q0 whole entry): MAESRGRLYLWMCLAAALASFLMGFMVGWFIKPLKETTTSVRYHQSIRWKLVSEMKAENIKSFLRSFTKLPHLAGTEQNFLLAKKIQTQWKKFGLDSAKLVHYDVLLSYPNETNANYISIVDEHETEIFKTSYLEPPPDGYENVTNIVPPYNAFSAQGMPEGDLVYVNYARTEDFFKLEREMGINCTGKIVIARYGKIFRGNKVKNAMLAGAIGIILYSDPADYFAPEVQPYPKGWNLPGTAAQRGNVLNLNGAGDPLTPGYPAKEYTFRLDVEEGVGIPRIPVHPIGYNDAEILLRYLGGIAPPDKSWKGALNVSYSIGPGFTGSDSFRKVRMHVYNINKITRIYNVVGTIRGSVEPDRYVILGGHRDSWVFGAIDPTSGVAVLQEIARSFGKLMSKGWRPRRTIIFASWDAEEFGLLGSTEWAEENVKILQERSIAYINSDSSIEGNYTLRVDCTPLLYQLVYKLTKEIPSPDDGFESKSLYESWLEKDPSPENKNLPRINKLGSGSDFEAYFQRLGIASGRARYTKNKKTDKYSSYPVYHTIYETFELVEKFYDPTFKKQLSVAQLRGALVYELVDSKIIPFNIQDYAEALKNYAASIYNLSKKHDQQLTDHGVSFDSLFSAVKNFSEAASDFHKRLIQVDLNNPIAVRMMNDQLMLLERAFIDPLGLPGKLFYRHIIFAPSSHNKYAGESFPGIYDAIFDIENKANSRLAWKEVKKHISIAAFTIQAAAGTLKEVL

Row | Structure (SMILES) | Kd (GCP3) [µM] | binding to human ACP3 by FP (recombinant human ACP3) | Kd (PSMA [1]) [µM] | binding to PSMA on the cell surface by flow cytometry [2] | co-elution with PSMA in size-exclusion chromatography (PSMA [3]) | Kd (murine CAIX (mCAIX)) [µM] | Kd (human CAIX (hCAIX)) [µM] | binding to CAIX on the cell surface by flow cytometry [4] | Kd (bovine CAII (bCAII)) [µM]
1 | O=C(O)CC[C@H](NC(=O)N[C@@H](Cc1ccc(I)cc1)C(=O)NCCCCCCNC(=S)Nc1ccc2c(c1)C(=O)OC21c2ccc(O)cc2Oc2cc(O)ccc21)C(=O)O [compound 1] | 0.081 | did not bind | 0.087 | only compound 5 was able to bind | – | – | – | – | –
2 | O=C(O)CC[C@H](NC(=O)N[C@@H](Cc1cccc(I)c1)C(=O)NCCCCCCNC(=S)Nc1ccc2c(c1)C(=O)OC21c2ccc(O)cc2Oc2cc(O)ccc21)C(=O)O [compound 3] | – | did not bind | 0.099 | only compound 5 was able to bind | – | – | – | – | –
3 | CCOc1ccccc1-c1cccc(C[C@H](NC(=O)N[C@@H](CCC(=O)O)C(=O)O)C(=O)NCCCCCCNC(=S)Nc2ccc3c(c2)C(=O)OC32c3ccc(O)cc3Oc3cc(O)ccc32)c1 [compound 5] | – | did not bind | 0.013 | able to bind to the antigen expressed on the tumor cell surface | selective and kinetically stable interaction with PSMA | – | – | – | –
4 | NS(=O)(=O)c1ccc(-c2cccc(C[C@@H](NC(=O)CCC(=O)N[C@@H](CCCCNC(=S)Nc3ccc4c(c3)C(=O)OC43c4ccc(O)cc4Oc4cc(O)ccc43)C(=O)O)C(=O)NCC3(c4cccs4)CCOCC3)c2)cc1 [compound 21] | – | – | – | – | – | 0.00873 | 0.00095 | bound to the antigen expressed on the surface of cancer cells | 0.15
5 | NS(=O)(=O)c1nnc(Nc2cccc(C[C@@H](NC(=O)CCC(=O)N[C@@H](CCCCNC(=S)Nc3ccc4c(c3)C(=O)OC43c4ccc(O)cc4Oc4cc(O)ccc43)C(=O)O)C(=O)NCC3(c4cccs4)CCOCC3)c2)s1 [compound 24] | – | – | – | – | – | – | 0.00185 | bound to the antigen expressed on the surface of cancer cells | –
